Experimental data taken from ChEMBL document CHEMBL2440076, “New triarylpyrazoles as broad-spectrum anticancer agents: design, synthesis, and biological evaluation” (Eur J Med Chem, 2013).

Columns and labels:
Format in all cases: functional
[1] = tested on: HCT-15; test: Growth inhibition of human HCT15 cells assessed as cell growth at 5X10'-9 M after 48 hrs by sulforhodamine B assay; conditions: HCT-15, 48 h, read-out: Activity
[2] = tested on: HCT-116; test: Growth inhibition of human HCT116 cells assessed as cell growth at 5X10'-9 M after 48 hrs by sulforhodamine B assay; conditions: HCT-116, 48 h, read-out: Activity
[3] = tested on: Malme-3M; test: Growth inhibition of human MALME-3M cells assessed as cell growth at 5X10'-5 M after 48 hrs by sulforhodamine B assay; conditions: read-out: Activity
[4] = tested on: HT-29; test: Growth inhibition of human HT-29 cells assessed as cell growth at 5X10'-5 M after 48 hrs by sulforhodamine B assay; conditions: HT-29, 48 h, read-out: Activity
[5] = tested on: HCT-15; test: Growth inhibition of human HCT15 cells assessed as cell growth at 5X10'-5 M after 48 hrs by sulforhodamine B assay; conditions: HCT-15, 48 h, read-out: Activity
[6] = tested on: HCT-116; test: Growth inhibition of human HCT116 cells assessed as cell growth at 5X10'-5 M after 48 hrs by sulforhodamine B assay; conditions: HCT-116, 48 h, read-out: Activity
[7] = tested on: COLO 205; test: Growth inhibition of human COLO205 cells assessed as cell growth at 5X10'-5 M after 48 hrs by sulforhodamine B assay; conditions: COLO 205, 48 h, read-out: Activity
[8] = tested on: T47D; test: Growth inhibition of human T47D cells assessed as cell growth at 5X10'-6 M after 48 hrs by sulforhodamine B assay; conditions: read-out: Activity
[9] = tested on: CAKI-1; test: Growth inhibition of human CAKI-1 cells assessed as cell growth at 5X10'-6 M after 48 hrs by sulforhodamine B assay; conditions: CAKI-1, 48 h, read-out: Activity
[10] = tested on: A498; test: Growth inhibition of human A498 cells assessed as cell growth at 5X10'-6 M after 48 hrs by sulforhodamine B assay; conditions: A498, 48 h, read-out: Activity
[11] = tested on: HOP-62; test: Growth inhibition of human HOP62 cells assessed as cell growth at 5X10'-9 M after 48 hrs by sulforhodamine B assay; conditions: HOP-62, 48 h, read-out: Activity
[12] = tested on: HCT-15; test: Growth inhibition of human HCT15 cells assessed as cell growth at 5X10'-6 M after 48 hrs by sulforhodamine B assay; conditions: HCT-15, 48 h, read-out: Activity
[13] = tested on: NCI-H460; test: Growth inhibition of human NCI-H460 cells assessed as cell growth at 5X10'-6 M after 48 hrs by sulforhodamine B assay; conditions: NCI-H460, 48 h, read-out: Activity
[14] = tested on: NCI-H322M; test: Growth inhibition of human NCI-H322M cells assessed as cell growth at 5X10'-6 M after 48 hrs by sulforhodamine B assay; conditions: read-out: Activity
[15] = tested on: MDA-MB-468; test: Growth inhibition of human MDA-MB-468 cells assessed as cell growth at 5X10'-7 M after 48 hrs by sulforhodamine B assay; conditions: MDA-MB-468, 48 h, read-out: Activity
[16] = tested on: UO-31; test: Growth inhibition of human UO31 cells assessed as cell growth at 5X10'-7 M after 48 hrs by sulforhodamine B assay; conditions: UO-31, 48 h, read-out: Activity
[17] = tested on: RXF 393; test: Growth inhibition of human RXF393 cells assessed as cell growth at 5X10'-7 M after 48 hrs by sulforhodamine B assay; conditions: RXF 393, 48 h, read-out: Activity
[18] = tested on: OVCAR-8; test: Growth inhibition of human OVCAR8 cells assessed as cell growth at 5X10'-7 M after 48 hrs by sulforhodamine B assay; conditions: OVCAR-8, 48 h, read-out: Activity
[19] = tested on: NCI-H460; test: Growth inhibition of human NCI-H460 cells assessed as cell growth at 5X10'-7 M after 48 hrs by sulforhodamine B assay; conditions: NCI-H460, 48 h, read-out: Activity
[20] = tested on: HOP-62; test: Growth inhibition of human HOP62 cells assessed as cell growth at 5X10'-7 M after 48 hrs by sulforhodamine B assay; conditions: HOP-62, 48 h, read-out: Activity
[21] = tested on: CCRF-CEM; test: Growth inhibition of human CCRF-CEM cells assessed as cell growth at 5X10'-7 M after 48 hrs by sulforhodamine B assay; conditions: read-out: Activity
[22] = tested on: OVCAR-4; test: Growth inhibition of human OVCAR4 cells assessed as cell growth at 5X10'-8 M after 48 hrs by sulforhodamine B assay; conditions: OVCAR-4, 48 h, read-out: Activity
[23] = tested on: OVCAR-3; test: Growth inhibition of human OVCAR3 cells assessed as cell growth at 5X10'-8 M after 48 hrs by sulforhodamine B assay; conditions: OVCAR-3, 48 h, read-out: Activity
[24] = tested on: SK-MEL-28; test: Growth inhibition of human SK-MEL-28 cells assessed as cell growth at 5X10'-8 M after 48 hrs by sulforhodamine B assay; conditions: SK-MEL-28, 48 h, read-out: Activity
[25] = tested on: SF-539; test: Growth inhibition of human SF539 cells assessed as cell growth at 5X10'-8 M after 48 hrs by sulforhodamine B assay; conditions: SF-539, 48 h, read-out: Activity
[26] = tested on: KM12; test: Growth inhibition of human KM12 cells assessed as cell growth at 5X10'-8 M after 48 hrs by sulforhodamine B assay; conditions: KM12, 48 h, read-out: Activity
[27] = tested on: PC-3; test: Growth inhibition of human PC3 cells assessed as cell growth at 5X10'-5 M after 48 hrs by sulforhodamine B assay; conditions: PC-3, 48 h, read-out: Activity
[28] = Growth inhibition of human NCI-ADR-RES cells assessed as cell growth at 5X10'-5 M after 48 hrs by sulforhodamine B assay; conditions: read-out: Activity
[29] = tested on: SK-MEL-2; test: Growth inhibition of human SK-MEL-2 cells assessed as cell growth at 5X10'-5 M after 48 hrs by sulforhodamine B assay; conditions: SK-MEL-2, 48 h, read-out: Activity
[30] = tested on: NCI-H226; test: Growth inhibition of human NCI-H226 cells assessed as cell growth at 5X10'-8 M after 48 hrs by sulforhodamine B assay; conditions: NCI-H226, 48 h, read-out: Activity
[31] = tested on: HOP-62; test: Growth inhibition of human HOP62 cells assessed as cell growth at 5X10'-8 M after 48 hrs by sulforhodamine B assay; conditions: HOP-62, 48 h, read-out: Activity
[32] = tested on: CAKI-1; test: Growth inhibition of human CAKI-1 cells assessed as cell growth at 5X10'-9 M after 48 hrs by sulforhodamine B assay; conditions: CAKI-1, 48 h, read-out: Activity
[33] = tested on: SK-OV-3; test: Growth inhibition of human SKOV3 cells assessed as cell growth at 5X10'-9 M after 48 hrs by sulforhodamine B assay; conditions: SK-OV-3, 48 h, read-out: Activity
[34] = tested on: UACC-257; test: Growth inhibition of human UACC257 cells assessed as cell growth at 5X10'-9 M after 48 hrs by sulforhodamine B assay; conditions: UACC-257, 48 h, read-out: Activity
[35] = tested on: U-251; test: Growth inhibition of human U251 cells assessed as cell growth at 5X10'-9 M after 48 hrs by sulforhodamine B assay; conditions: U-251, 48 h, read-out: Activity
[36] = tested on: SNB-75; test: Growth inhibition of human SNB75 cells assessed as cell growth at 5X10'-9 M after 48 hrs by sulforhodamine B assay; conditions: SNB-75, 48 h, read-out: Activity

Row | SMILES | growth at 0.005 µM [1] [%] | growth at 0.005 µM [2] [%] | growth at 50 µM [3] [%] | growth at 50 µM [4] [%] | growth at 50 µM [5] [%] | growth at 50 µM [6] [%] | growth at 50 µM [7] [%] | growth at 5 µM [8] [%] | growth at 5 µM [9] [%] | growth at 5 µM [10] [%] | growth at 0.005 µM [11] [%] | growth at 5 µM [12] [%] | growth at 5 µM [13] [%] | growth at 5 µM [14] [%] | growth at 0.5 µM [15] [%] | growth at 0.5 µM [16] [%] | growth at 0.5 µM [17] [%] | growth at 0.5 µM [18] [%] | growth at 0.5 µM [19] [%] | growth at 0.5 µM [20] [%] | other results
1 | COc1cc(-c2nn(-c3cccc(NC(=O)Nc4cc(C(F)(F)F)cc(C(F)(F)F)c4)c3)cc2-c2ccncc2)ccc1Cl | 97 | 101 | -63 | -77 | -75 | -67 | -95 | 10 | -20 | -43 | 100 | -57 | -41 | -24 | 41 | 62 | 82 | 51 | 55 | 93 | growth at 0.5 µM [21]: 50%; growth at 0.05 µM [22]: 92%; growth at 0.05 µM [23]: 109%; growth at 0.05 µM [24]: 97%; growth at 0.05 µM [25]: 90%; growth at 0.05 µM [26]: 107%; growth at 50 µM [27]: -31%; growth at 50 µM [28]: -16%; growth at 50 µM [29]: -84%; growth at 0.05 µM [30]: 90%; growth at 0.05 µM [31]: 95%; growth at 0.005 µM [32]: 95%; growth at 0.005 µM [33]: 102%; growth at 0.005 µM [34]: 94%; growth at 0.005 µM [35]: 97%; growth at 0.005 µM [36]: 94%
2 | COc1cc(-c2nn(-c3cccc(NC(=O)c4cccc(C(F)(F)F)c4)c3)cc2-c2ccncc2)ccc1Cl | 98 | 99 | 29 | -4 | 8 | 9 | -72 | 36 | 24 | -21 | 95 | 15 | 4 | 52 | 89 | 62 | 68 | 91 | 90 | 97 | growth at 0.5 µM [21]: 88%; growth at 0.05 µM [22]: 98%; growth at 0.05 µM [23]: 101%; growth at 0.05 µM [24]: 102%; growth at 0.05 µM [25]: 94%; growth at 0.05 µM [26]: 95%; growth at 50 µM [27]: 14%; growth at 50 µM [28]: -9%; growth at 50 µM [29]: 6%; growth at 0.05 µM [30]: 93%; growth at 0.05 µM [31]: 97%; growth at 0.005 µM [32]: 94%; growth at 0.005 µM [33]: 96%; growth at 0.005 µM [34]: 105%; growth at 0.005 µM [35]: 94%; growth at 0.005 µM [36]: 90%
3 | COc1cc(-c2nn(-c3cccc(NC(=O)Nc4ccc(Cl)c(Cl)c4)c3)cc2-c2ccncc2)ccc1Cl | 95 | 105 | -43 | -19 | 5 | 2 | -94 | 9 | -13 | -3 | 93 | 10 | 4 | 15 | 55 | 65 | 76 | 73 | 74 | 93 | growth at 0.5 µM [21]: 74%; growth at 0.05 µM [22]: 94%; growth at 0.05 µM [23]: 111%; growth at 0.05 µM [24]: 95%; growth at 0.05 µM [25]: 85%; growth at 0.05 µM [26]: 104%; growth at 50 µM [27]: -22%; growth at 50 µM [28]: -9%; growth at 50 µM [29]: -59%; growth at 0.05 µM [30]: 92%; growth at 0.05 µM [31]: 97%; growth at 0.005 µM [32]: 97%; growth at 0.005 µM [33]: 104%; growth at 0.005 µM [34]: 98%; growth at 0.005 µM [35]: 96%; growth at 0.005 µM [36]: 86%
4 | COc1cc(-c2nn(-c3cccc(NC(=O)Nc4cccc(C(F)(F)F)c4)c3)cc2-c2ccncc2)ccc1Cl | 100 | 101 | -51 | -79 | -29 | -16 | -89 | 18 | -14 | -7 | 93 | 1 | -11 | -2 | 57 | 61 | 74 | 65 | 64 | 94 | growth at 0.5 µM [21]: 69%; growth at 0.05 µM [22]: 96%; growth at 0.05 µM [23]: 102%; growth at 0.05 µM [24]: 100%; growth at 0.05 µM [25]: 94%; growth at 0.05 µM [26]: 97%; growth at 50 µM [27]: -22%; growth at 50 µM [28]: -9%; growth at 50 µM [29]: -85%; growth at 0.05 µM [30]: 96%; growth at 0.05 µM [31]: 95%; growth at 0.005 µM [32]: 94%; growth at 0.005 µM [33]: 100%; growth at 0.005 µM [34]: 96%; growth at 0.005 µM [35]: 97%; growth at 0.005 µM [36]: 92%
5 | O=C(Nc1cccc(-n2cc(-c3ccncc3)c(-c3ccc(Cl)c(O)c3)n2)c1)c1ccc(N2CCOCC2)c(C(F)(F)F)c1 | 94 | 99 | -40 | 16 | -7 | 10 | 65 | 84 | 34 | 92 | 91 | 18 | 9 | 76 | 92 | 112 | 57 | 86 | 98 | 117 | growth at 0.5 µM [21]: 81%; growth at 0.05 µM [22]: 100%; growth at 0.05 µM [23]: 100%; growth at 0.05 µM [24]: 102%; growth at 0.05 µM [25]: 93%; growth at 0.05 µM [26]: 93%; growth at 50 µM [27]: 7%; growth at 50 µM [28]: 16%; growth at 50 µM [29]: -36%; growth at 0.05 µM [30]: 95%; growth at 0.05 µM [31]: 101%; growth at 0.005 µM [32]: 93%; growth at 0.005 µM [33]: 95%; growth at 0.005 µM [34]: 100%; growth at 0.005 µM [35]: 101%; growth at 0.005 µM [36]: 94%
